Measurements taken from publication PMC10974533, “Cationicity Enhancement on the Hydrophilic Face of Ctriporin Significantly Reduces Its Hemolytic Activity and Improves the Antimicrobial Activity against Antibiotic-Resistant ESKAPE Pathogens” (Toxins, 2024).
Where a SMILES comes first, the peptide text is derived from it.

Assays:
Type in all cases: cell-based
[1] = tested on: human red blood cells (hRBC); experiment: Hemolytic activity determination; details: 256 μg/mL peptide, 2% (v/v) hRBC, 37 °C, 1 h, OD540, 1% Triton X-100 = 100%; average ± standard error of three independent experiments
Experimental: Figure 2 Hemolytic activities of Ctriporin and its analogs against human red blood cells (hRBC). Hemolytic activities of Ctriporin (solid circle), CM1 (open circle), CM2 (open square), CM3 (upward triangle), CM4 (downward triangle), CM5 (half solid circle), CM6 (half solid square), and CM7 (half solid triangle), were measured against 2% (v/v) human red blood cells. The peptide concentrations are 0, 2, 4, 8, 16, 32, 64, 128, 256, and 512 μg/mL. The cells treated with 1% Triton X-100 were treated as 100% hemolysis. All experiments were repeated three times, and the data shown are the average ± standard error.
The hemolytic activities of the peptides were determined against human red blood cells (hRBCs). As described, sodium citrate-anticoagulated hRBCs were washed three times with 0.9% sodium chloride and diluted to a final concentration of 4% (v/v). Then, an equal volume of hRBC solutions was mixed with an equal volume of each peptide in a series of concentrations (0, 2, 4, 8, 16, 32, 64, 128, 256, and 512 μg/mL). After co-incubation at 37 °C for 1 h, the degree of hemolysis of the peptides was determined by detecting the release of hemoglobin from the damaged hRBCs by measuring the optical density at 540 nm (OD540). hRBCs in 0.9% sodium chloride and 1% Triton X-100 were considered 0% and 100% hemolysis, respectively. The results shown are the average ± standard error of data derived from three independent experiments. The percent hemolysis was calculated according to the following equation [53, 54]:Hemolysis (%) = 100 × (Asample − Ablank)/(Apositive − Ablank)

E. coli ATCC35218 = experiment: MIC, broth dilution, standard strain; details: broth dilution (CLSI), MHB, 37 °C, 16–20 h
Experimental: (§1) The standard strains, including S. aureus ATCC29213 and ATCC25923, E. faecalis ATCC29212, E. coli ATCC25922 and ATCC35218, A. baumannii ATCC19606, K. pneumoniae ATCC700603, and P. aeruginosa ATCC27853, were purchased from the China Center of Type Culture Collection (CCTCC). The clinical strains of the ESKAPE pathogens were isolated from the affiliated hospitals of Hubei University of Medicine. All of them were stored at −80 °C before use. The drug sensitivities of the clinical strains were determined by the Kirby–Bauer test.
(§2) The MICs were determined using the broth dilution method according to the guidelines of the Clinical and Laboratory Standards Institute (CLSI), as described in the previous studies. Briefly, the bacterial cells were incubated in Mueller–Hinton broth (MHB, Oxoid, Basingstoke, UK) at 37 °C and 150 rpm to the mid-growth phase and diluted to achieve a final concentration of 5 × 10^5 colony-forming units per milliliter (CFU/mL). Then, the cells were mixed with each peptide in different concentrations (1, 2, 4, 8, 16, 32, and 64 μg/mL). […] All experiments were repeated at least three times.

S. aureus ATCC25923 = experiment: MIC, broth dilution, standard strain; details: broth dilution (CLSI), MHB, 37 °C, 16–20 h
Experimental: as §1, §2

P. aeruginosa ATCC27853 = experiment: MIC, broth dilution, standard strain; details: broth dilution (CLSI), MHB, 37 °C, 16–20 h
Experimental: as §1, §2

S. aureus ATCC29213 = experiment: MIC, broth dilution, standard strain; details: broth dilution (CLSI), MHB, 37 °C, 16–20 h
Experimental: as §1, §2

K. pneumoniae ATCC700603 = experiment: MIC, broth dilution, standard strain; details: broth dilution (CLSI), MHB, 37 °C, 16–20 h
Experimental: as §1, §2

E. coli ATCC25922 = experiment: MIC, broth dilution, standard strain; details: broth dilution (CLSI), MHB, 37 °C, 16–20 h
Experimental: as §1, §2

E. faecium ATCC29212 = experiment: MIC, broth dilution, standard strain; details: broth dilution (CLSI), MHB, 37 °C, 16–20 h
Experimental: as §1, §2

A. baumannii ATCC19606 = experiment: MIC, broth dilution, standard strain; details: broth dilution (CLSI), MHB, 37 °C, 16–20 h
Experimental: as §1, §2

[2] = 5 × 10^5 CFU/mL, OD630, repeated at least three times

SMILES	Hemolysis% at 256 μg/mL [1]	MICs (E. coli ATCC35218; [2])	MICs (E. coli ATCC35218; value in parentheses)	MICs (S. aureus ATCC25923; [2])	MICs (S. aureus ATCC25923; value in parentheses)	MICs (P. aeruginosa ATCC27853; [2])	MICs (P. aeruginosa ATCC27853; value in parentheses)	MICs (S. aureus ATCC29213; [2])	MICs (S. aureus ATCC29213; value in parentheses)	MICs (K. pneumoniae ATCC700603; [2])	MICs (K. pneumoniae ATCC700603; value in parentheses)	MICs (E. coli ATCC25922; [2])	MICs (E. faecium ATCC29212; [2])	MICs (E. faecium ATCC29212; value in parentheses)	MICs (A. baumannii ATCC19606; [2])	MICs (A. baumannii ATCC19606; value in parentheses)	MICs (E. coli ATCC25922; value in parentheses)
CC[C@H](C)[C@H](NC(=O)[C@H](C)NC(=O)CNC(=O)[C@@H]1CCCN1C(=O)[C@@H](NC(=O)[C@H](CC(C)C)NC(=O)[C@H](CCCCN)NC(=O)[C@H](Cc1c[nH]c2ccccc12)NC(=O)[C@H](CC(C)C)NC(=O)[C@@H](N)Cc1ccccc1)[C@@H](C)CC)C(=O)N[C@@H](CO)C(=O)N[C@@H](C)C(=O)N[C@H](C(=O)N[C@H](C(=O)N[C@@H](CO)C(=O)N[C@@H](CC(C)C)C(=O)N[C@H](C(=O)N[C@@H](CCCCN)C(=O)N[C@@H](CCCCN)C(N)=O)[C@@H](C)CC)[C@@H](C)O)C(C)C [CM1] (H-FLWKLIPGAISAVTSLIKK-NH2; N-terminus assumed)	75.6 ± 10.1%	32 µg/mL	15.4 µM	16 µg/mL	7.7 µM	> 64 µg/mL	> 30.7 µM	8 µg/mL	3.8 µM	64 µg/mL	30.7 µM	8 µg/mL	16 µg/mL	7.7 µM	8 µg/mL	3.8 µM	
CC[C@H](C)[C@H](NC(=O)[C@H](C)NC(=O)[C@H](CCCCN)NC(=O)[C@@H]1CCCN1C(=O)[C@@H](NC(=O)[C@H](CC(C)C)NC(=O)[C@H](CCCCN)NC(=O)[C@H](Cc1c[nH]c2ccccc12)NC(=O)[C@H](CC(C)C)NC(=O)[C@@H](N)Cc1ccccc1)[C@@H](C)CC)C(=O)N[C@@H](CO)C(=O)N[C@@H](C)C(=O)N[C@H](C(=O)N[C@H](C(=O)N[C@@H](CO)C(=O)N[C@@H](CC(C)C)C(=O)N[C@H](C(=O)N[C@@H](CCCCN)C(=O)N[C@@H](CCCCN)C(N)=O)[C@@H](C)CC)[C@@H](C)O)C(C)C [CM2] (H-FLWKLIPKAISAVTSLIKK-NH2; N-terminus assumed)	74.3 ± 9.2%	8 µg/mL	3.7 µM	8 µg/mL	3.7 µM	16 µg/mL	7.4 µM	4 µg/mL	1.9 µM	16 µg/mL	7.4 µM	4 µg/mL	4 µg/mL	1.9 µM	4 µg/mL	1.9 µM	1.9 µM
